From ChEMBL document CHEMBL1671830, “Discovery of PSI-353661, a Novel Purine Nucleotide Prodrug for the Treatment of HCV Infection” (ACS Med Chem Lett, 2011)
pIC50: −log10 of the molar value.

Tests used:
[1] = test system: Plasma; assay: Metabolic stability in rat plasma assessed as (2S)-2-((((2R,3R,4R,5R)-5-(2-amino-6-methoxy-9H-purin-9-yl)-4-fluoro-3-hydroxy-4-methyltetrahydrofuran-2-yl)methoxy)(hydroxy)phosphorylamino)propanoic acid level at 60 uCi, po after 1 hr; type: ADME, organism-based; conditions: in vivo
[2] = test system: Plasma; assay: Metabolic stability in rat plasma assessed as beta-D-2'-Deoxy-2'-R-fluoro-2'-beta-C-methylguanosine level at 60 uCi, po after 1 hr; type: ADME, organism-based; conditions: in vivo
[3] = test system: Liver; assay: Metabolic stability in rat liver assessed as ((2R,3R,4R,5R)-5-(2-amino-6-oxo-1H-purin-9(6H)-yl)-4-fluoro-3-hydroxy-4-methyltetrahydrofuran-2-yl)methyl trihydrogen diphosphate level at 60 uCi, po after 1 hr; type: ADME, organism-based; conditions: in vivo
[4] = test system: Liver; assay: Metabolic stability in rat liver assessed as (2S)-2-((((2R,3R,4R,5R)-5-(2-amino-6-methoxy-9H-purin-9-yl)-4-fluoro-3-hydroxy-4-methyltetrahydrofuran-2-yl)methoxy)(hydroxy)phosphorylamino)propanoic acid level at 60 uCi, po after 6 hrs; type: ADME, organism-based; conditions: in vivo
[5] = test system: Liver; assay: Metabolic stability in rat liver assessed as ((2R,3R,4R,5R)-5-(2-amino-6-oxo-1H-purin-9(6H)-yl)-4-fluoro-3-hydroxy-4-methyltetrahydrofuran-2-yl)methyl tetrahydrogen triphosphate level at 60 uCi, po after 6 hrs; type: ADME, organism-based; conditions: in vivo
[6] = test system: Liver; assay: Metabolic stability in rat liver assessed as ((2R,3R,4R,5R)-5-(2-amino-6-oxo-1H-purin-9(6H)-yl)-4-fluoro-3-hydroxy-4-methyltetrahydrofuran-2-yl)methyl trihydrogen diphosphate level at 60 uCi, po after 6 hrs; type: ADME, organism-based; conditions: in vivo
[7] = test system: Plasma; assay: Metabolic stability in rat plasma assessed as (2S)-2-((((2R,3R,4R,5R)-5-(2-amino-6-methoxy-9H-purin-9-yl)-4-fluoro-3-hydroxy-4-methyltetrahydrofuran-2-yl)methoxy)(hydroxy)phosphorylamino)propanoic acid level at 60 uCi, po after 6 hrs; type: ADME, organism-based; conditions: in vivo
[8] = test system: Liver; assay: Metabolic stability in rat liver assessed as beta-D-2'-Deoxy-2'-R-fluoro-2'-beta-C-methylguanosine level at 60 uCi, po after 6 hrs; type: ADME, organism-based; conditions: in vivo
[9] = test system: Plasma; assay: Metabolic stability in rat plasma assessed as PSI-353661 level at 60 uCi, po after 6 hrs; type: ADME, organism-based; conditions: in vivo
[10] = test system: Liver; assay: Metabolic stability in rat liver assessed as (2S)-2-((((2R,3R,4R,5R)-5-(2-amino-6-methoxy-9H-purin-9-yl)-4-fluoro-3-hydroxy-4-methyltetrahydrofuran-2-yl)methoxy)(hydroxy)phosphorylamino)propanoic acid level at 60 uCi, po after 1 hr; type: ADME, organism-based; conditions: in vivo
[11] = test system: Liver; assay: Metabolic stability in rat liver assessed as ((2R,3R,4R,5R)-5-(2-amino-6-oxo-1H-purin-9(6H)-yl)-4-fluoro-3-hydroxy-4-methyltetrahydrofuran-2-yl)methyl dihydrogen phosphate level at 60 uCi, po after 1 hr; type: ADME, organism-based; conditions: in vivo
[12] = test system: Liver; assay: Metabolic stability in rat liver assessed as ((2R,3R,4R,5R)-5-(2-amino-6-oxo-1H-purin-9(6H)-yl)-4-fluoro-3-hydroxy-4-methyltetrahydrofuran-2-yl)methyl tetrahydrogen triphosphate level at 60 uCi, po after 1 hr; type: ADME, organism-based; conditions: in vivo
[13] = test system: Plasma; assay: Metabolic stability in rat plasma assessed as PSI-353661 level at 60 uCi, po after 1 hr; type: ADME, organism-based; conditions: in vivo
[14] = test system: Plasma; assay: Metabolic stability in rat plasma assessed as (2S)-isopropyl 2-((((2R,3R,4R,5R)-5-(2-amino-6-methoxy-9H-purin-9-yl)-4-fluoro-3-hydroxy-4-methyltetrahydrofuran-2-yl)methoxy)(phenoxy)phosphorylamino)propanoate level at 60 uCi, po after 1 hr; type: ADME, organism-based; conditions: in vivo
[15] = test system: Liver; assay: Metabolic stability in rat liver assessed as beta-D-2'-Deoxy-2'-R-fluoro-2'-beta-C-methylguanosine level at 60 uCi, po after 1 hr; type: ADME, organism-based; conditions: in vivo
[16] = test system: Plasma; assay: Metabolic stability in rat plasma assessed as beta-D-2'-Deoxy-2'-R-fluoro-2'-beta-C-methylguanosine level at 60 uCi, po after 6 hrs; type: ADME, organism-based; conditions: in vivo
[17] = test system: Plasma; assay: Metabolic stability in rat plasma assessed as (2S)-isopropyl 2-((((2R,3R,4R,5R)-5-(2-amino-6-methoxy-9H-purin-9-yl)-4-fluoro-3-hydroxy-4-methyltetrahydrofuran-2-yl)methoxy)(phenoxy)phosphorylamino)propanoate level at 60 uCi, po after 6 hrs; type: ADME, organism-based; conditions: in vivo
[18] = test system: Liver; assay: Metabolic stability in rat liver assessed as ((2R,3R,4R,5R)-5-(2-amino-6-oxo-1H-purin-9(6H)-yl)-4-fluoro-3-hydroxy-4-methyltetrahydrofuran-2-yl)methyl dihydrogen phosphate level at 60 uCi, po after 6 hrs; type: ADME, organism-based; conditions: in vivo
[19] = test system: Hepatitis C virus; assay: Antiviral activity against HCV by cell-based replicon assay; type: functional, Hepacivirus hominis
[20] = Half life in human liver S9 fraction; type: ADME, subcellular
[21] = test system: CCRF-CEM; assay: Cytotoxicity against human CEM cells assessed as mitochondrial rDNA level up to 100 uM after 14 days by RT-PCR analysis; type: cell-based; conditions: 336 h
[22] = test system: CCRF-CEM; assay: Cytotoxicity against human CEM cells assessed as mitochondrial COX2 DNA level up to 100 uM after 14 days by RT-PCR analysis; type: cell-based; conditions: 336 h
[23] = Half life in human plasma; type: ADME, cell-free
[24] = test system: HepG2; assay: Cytotoxicity against human HepG2 cells assessed as mitochondrial rDNA level up to 100 uM after 14 days by RT-PCR analysis; type: cell-based; conditions: hepg2, 336 h
[25] = test system: Hepatitis C virus; assay: Antiviral activity against HCV harboring NS5B polymerase S282T mutant infected in human HuH7 cells by cell-based replicon assay; type: functional, Hepacivirus hominis, Huh-7
[26] = Cytotoxicity against human CEM cells after 96 hrs by MTS assay; type: cell-based; conditions: CEM (CCRF-CEM) cells
[27] = Half life in simulated gastrointestinal fluid; type: ADME
[28] = test system: HepG2; assay: Cytotoxicity against human HepG2 cells assessed as mitochondrial COX2 DNA level up to 100 uM after 14 days by RT-PCR analysis; type: cell-based; conditions: hepg2, 336 h
[29] = test system: Hepatitis C virus; assay: Antiviral activity against HCV infected in human HuH7 cells by cell-based replicon assay; type: functional, Hepacivirus hominis, Huh-7
[30] = Half life in simulated intestinal fluid; type: ADME
[31] = test system: Hepatocyte; assay: Increase of cellular triphosphate level in human primary hepatocytes cells at 100 uM after 24 hrs by HPLC analysis; type: functional
[32] = test system: Huh-7; assay: Increase of cellular triphosphate level in human HuH7 cells at 100 uM after 48 hrs by HPLC analysis; type: functional
[33] = Cytotoxicity against human HepG2 cells after 96 hrs by MTS assay; type: cell-based
[34] = Cytotoxicity against human HuH7 cells after 96 hrs by MTS assay; type: cell-based, Huh-7
[35] = Cytotoxicity against human […] cells after 96 hrs by MTS assay; type: cell-based
[36] = Inhibition of HCV NS5B polymerase; parameters: species or system Hepacivirus hominis

Question: Which results are given for [3H]c1nc2c(OC)nc(N)nc2n1[C@@H]1O[C@H](COP(=O)(O)N[C@@H](C)C(=O)OC(C)C)[C@@H](O)[C@@]1(C)F?
Answer: Stability [1]: 920 cpm; Stability [2]: 1376 cpm; Stability [3]: 988 cpm; Stability [4]: 572 cpm; Stability [5]: 460 cpm; Stability [6]: 1620 cpm; Stability [7]: 288 cpm; Stability [8]: 11512 cpm; Stability [9]: 368 cpm; Stability [10]: 1648 cpm; Stability [11]: 1828 cpm; Stability [12]: 384 cpm; Stability [13]: 1112 cpm; Stability [14]: 1160 cpm; Stability [15]: 4224 cpm; Stability [16]: 3848 cpm; Stability [17]: 272 cpm; Stability [18]: 1920 cpm

Question: Which EC90 [19] does the source give for C[C@@]1(F)[C@H](O)[C@@H](CO)O[C@H]1n1cnc2c(O)nc(N)nc21 here?
Answer: 69.2 µM

Question: With COc1nc(N)nc2c1ncn2[C@@H]1O[C@H](COP(=O)(N[C@@H](C)C(=O)OC(C)C)Oc2ccccc2)[C@@H](O)[C@@]1(C)F (stereo in doubt; 23) as the compound, how does the half-life [20] read?
Answer: 0.2 h

Question: What about the Activity [21] of the same compound?
Answer: Non-toxic

Question: And the Activity [22]?
Answer: Non-toxic

Question: And the half-life [23]?
Answer: > 24 h

Question: And the Activity [24]?
Answer: Non-toxic

Question: And the EC90 [25]?
Answer: 0.024 µM

Question: And the CC50 at 96 h [26]?
Answer: > 100 µM

Question: What about the half-life [27] of the same compound?
Answer: 14 h

Question: And the Activity [28]?
Answer: Non-toxic

Question: What about the EC90 [29] of the same compound?
Answer: 0.02 µM

Question: What about the half-life [30] of the same compound?
Answer: > 20 h

Question: What about the Activity [31] of the same compound?
Answer: 0.12 mM

Question: What about the Activity [32] of the same compound?
Answer: 0.12 mM

Question: What about the CC50 at 96 h [33] of the same compound?
Answer: 62 µM

Question: What about the CC50 at 96 h [34] of the same compound?
Answer: > 100 µM

Question: And the CC50 at 96 h [35]?
Answer: > 100 µM

Question: With C[C@@]1(F)[C@H](O)[C@@H](COP(=O)(O)OP(=O)(O)OP(=O)(O)O)O[C@H]1n1cnc2c(=O)[nH]c(N)nc21 [PSI-352666] as the compound, how does the pIC50 [36] read?
Answer: 5.23
